We go through eight molecules from publication PMC3869244, “Cyclopamine analogs bearing exocyclic methylenes are highly potent and acid-stable inhibitors of hedgehog signaling” (Beilstein Journal of Organic Chemistry, 2013).

A short description of series [1]: Stability towards acidic conditions. The series is classed as physicochemical. Particulars: pH approximately 1 (MeOH, 1 M HCl), 1H NMR compared with pure compound. On the procedure: Finally, we studied the stability of all newly synthesized compounds towards acidic conditions. Therefore, they were exposed to a pH of approximately 1 (MeOH, 1 M HCl) for 24 h. After evaporation of all volatiles, ^1H NMR spectra were acquired and compared to the initially obtained spectra of the pure compounds. […] This experiment emphasizes the importance of the C-21 methyl group for the stability of exo-cyclopamine derivatives. All synthesized compounds, the number of steps required, and the respective overall yield starting from 3 or 14, as well as their biological activity and stability under acidic conditions are summarized in Table 1.

Series [2] relates to Gli1-dependent luciferase expression in Shh-LIGHTII cells. The series is described as follows: Gli1-reporter gene assay (luciferase) in Shh-LIGHTII cells. Particulars: for IC50: Mus musculus, Shh Light II, 48 h, read-out: Potency in Gli-assay (IC50); for Activity in Gli1-dependent luciferase assay (in words): concentration range 0.01 μM to 10 μM. In kind it is cell-based, mouse. On the procedure:
Next, we examined all synthesized compounds for their ability to inhibit the Gli1-dependent luciferase expression in Shh-LIGHTII cells, a clonal mouse fibroblast cell line which stably incorporates a Gli-dependent firefly luciferase reporter and a constitutive Renilla luciferase reporter. The compounds were tested in a concentration range from 0.01 μM to 10 μM.
Data were obtained from three independent experiments and represent the mean ± standard deviation.
The interference of the exo-cyclopamine derivatives with the hedgehog signaling pathway was tested in an established reporter gene assay based on the inhibition of the target gene Gli1. Shh-LIGHTII cells (ATCC CRL-2795, LGC, Wesel, Germany) represent a clonal mouse fibroblast cell line (NIH 3T3), which stably incorporates a Gli-dependent firefly luciferase reporter and a constitutive Renilla luciferase reporter. They were grown in […] cell culture flasks at 37 °C in a humid atmosphere with 5% CO2. Cell growth medium […] (Dulbecco's Modified Eagle's Medium, high glucose, sodium pyruvate, w/o glutamine), ZeocinTM Selection Reagent and Geneticin® Selection Antibiotic (G418 sulfate) were obtained from Invitrogen. Additive L-glutamin and trypsin were obtained from PAA. VerseneTM chelating agent was obtained from Gibco, bovine fetal serum (FBS) from Sigma. The cell freeze medium contained 5% DMSO in complete growth medium. The cell number was counted using a Neubauer-Zählkammer (Hemocytometer).
DIMETHOXYETHANEM (high glucose, sodium pyruvate, w/o glutamine) supplemented with 0.5% FBS, 4 mM L-glutamin and 50 mM HEPES buffer (4-(2-hydroxyethyl)-1-piperazine ethanesulfonic acid) (pH 7.4) was used as incubation medium. The measurement of reporter gene and constitutive Renilla luminescence was performed with the Dual Luciferase® reporter system according to the manufacturer’s instructions (Promega, Mannheim, Germany) using a GENios reader (TECAN, Crailsheim, Germany).
Luciferase reporter assay.
For performing the assay, Shh-LIGHTII cells were grown to reach 80% confluence, washed twice with Versene, detached with 2 mL trypsin for not longer than 2 min and resuspended in 8 mL of growth medium. After centrifugation for 3 min, the supernatant was removed and the cell pellet dissolved in approximately 10 mL of growth medium. Finally, 20,000 to 100,000 cells per well were cultured in a 24-well plate for 48 h. For exposure to the derivatives the growth medium was removed and the cells were exposed to the compound in 500 μL/well incubation medium for 48 h. Stock solutions were prepared in EtOH and introduced in different concentrations into the incubation medium to reach a final solvent concentration of 0.05%. Due to the assay principle, Shh-LIGHTII cells had to be co-exposed to 100 nM of SAG (Smoothened agonist) for determining the inhibitory activity of the compounds. A SAG stock solution was prepared in EtOH and introduced into the medium. The final EtOH concentration – introduced by SAG and the test compound – was 0.1%. As a positive control a 100 nM SAG solution in incubation medium (0.1% EtOH) was used, negative controls were treated with EtOH […]
Performing the luciferase measurement.
After 48 h of incubation cells were washed with 500 μL PBS (phosphate buffered saline, w Mg/Ca, Invitrogen) and afterwards incubated for 15 min with 100 μL 1 x passive lysis buffer on a shaker. The lysed cells together with lysis solution were transferred into 1.5 mL reaction tubes, centrifuged for 1 min at 4 °C and kept on ice until further use. At first, the blank of luminescence of a 96-well plate (flat bottom, white, Greiner bio-one) was recorded. Then, 100 μL luciferase assay reagent and 10 μL cell supernatant were mixed per well and the luminescence of firefly luciferase was recorded. Addition of 100 μL Stop&Glo® reagent permitted the recording

The test system is the same in series [3]. Particulars: cited from earlier work.
The conditions of series [4]: cited from earlier work.
In a further series the test system is Shh-LIGHTII cells. The series is described as follows: Cytotoxicity observed in the reporter gene assay. Particulars: in the concentration range tested (0.01 μM to 10 μM). In kind it is cell-based, mouse. On the procedure: Given the negative test results of compounds 8 and 9 it becomes evident that the F-ring is necessary for bioactivity. The piperidine moiety provides a rather rigidly placed nitrogen atom. Nevertheless, a pyrrolidine as in compound 23 still provides the correct orientation of the nitrogen atom.
The interference of the exo-cyclopamine derivatives with the hedgehog signaling pathway was tested in an established reporter gene assay based on the inhibition of the target gene Gli1. […] The cell number was counted using a Neubauer-Zählkammer (Hemocytometer).
DIMETHOXYETHANEM (high glucose, sodium pyruvate, w/o glutamine) supplemented with 0.5% FBS, 4 mM L-glutamin and 50 mM HEPES buffer (4-(2-hydroxyethyl)-1-piperazine ethanesulfonic acid) (pH 7.4) was used as incubation medium. The measurement of reporter gene and constitutive Renilla luminescence was performed with the Dual Luciferase® reporter system according to the manufacturer’s instructions (Promega, Mannheim, Germany) using a GENios reader (TECAN, Crailsheim, Germany). […]
After 48 h of incubation cells were washed with 500 μL PBS (phosphate buffered saline, w Mg/Ca, Invitrogen) and afterwards incubated for 15 min with 100 μL 1 x passive lysis buffer on a shaker. […] At first, the blank of luminescence of a 96-well plate (flat bottom, white, Greiner bio-one) was recorded. […]

The mark [5] stands for this setting: Shh-LIGHTII cells, co-exposed to 100 nM SAG, tested 0.01 μM to 10 μM, mean ± standard deviation of three independent experiments.
Where [6] appears, read: read-out: Potency in Gli-assay, previously synthesized and biologically evaluated.

“Also recorded” adds a separate entry of the source. Where two headings read alike, the source gives them in different places. A value given as a limit tells only on which side of the number the result lay.

As for `C=C1C2CC3C(CC=C4CC(O)CCC43C)C2CCC12CC1NCCC1O2` (stereo not drawn) [Compound 23, F-nor-20,25-bis-demethyl-exo-cyclopamine], in series [1], the “Stability towards acid (pH ~1, 24 h)” value is reported as “showed decomposition; also recorded: decomp”. The IC50 in series [2] (setting [5]) is 6.4 ± 0.9 µM.
Regarding `CC1=C2C[C@H]3[C@@H](CC=C4C[C@@H](O)CC[C@@]43C)[C@@H]2CC[C@]12O[C@@H]1C[C@H](C)CN[C@H]1[C@H]2C` [Compound 1, cyclopamine], the IC50 in series [3] (read-out: Potency (IC50) as inhibitor of hedgehog signaling, introductory statement, no assay details printed) is approximately 5 µM; in series [3] (setting [6]), 5 µM. In addition, in series [4] (low metabolic stability (decomposition)), the “pH at which decomposition occurs” value is less than 3. In addition, the “Stability towards acid (pH ~1, 24 h)” value in series [4] (previously synthesized and evaluated compounds) is reported as “decomp”.
Consider `C=C1CN[C@H]2C[C@@]3(CC[C@H]4[C@@H]5CC=C6C[C@@H](O)CC[C@]6(C)[C@H]5C[C@H]4C3=C)O[C@@H]2C1` [Compound 19, 20-demethyl-bis-exo-cyclopamine], for which the “Stability towards acid (pH ~1, 24 h)” value in series [1] is “showed decomposition; also recorded: decomp”. Also, in series [2], the IC50 is more than 10 µM and the “Activity in Gli1-dependent luciferase assay (in words)” value is “no activity; also recorded: completely inactive”.
Turning to `C=C1C2CC3C(CC=C4CC(O)CCC43C)C2CCC12OC1CC(C)CNC1C2C` (stereo not drawn) [Compound 5, 25-epi-exo-cyclopamine], the “Stability towards acid (pH ~1, 24 h)” value in series [1] was “remained unchanged; also recorded: stable”. Further, the IC50 in series [2] (setting [5]) is 3.29 ± 0.31 µM.
For the molecule `C=C1[C@@H]2C[C@H]3[C@@H](CC=C4C[C@@H](O)CC[C@@]43C)[C@@H]2CC[C@]12O[C@@H]1C[C@H](C)CN[C@H]1[C@H]2C` [Compound 2, exo-cyclopamine], the IC50 in series [3] (setting [6]) was 0.5 µM.
Turning to `C=C1CNC2C(C1)OC1(CCC3C(CC4C3CC=C3CC(O)CCC34C)C1=C)C2C` (stereo not drawn) [Compound 6, bis-exo-cyclopamine], in series [2] (setting [5]), the IC50 was 0.2 ± 0.01 µM. Also, in series [2] (surpasses potency of parent compound), the “Potency relative to parent compound (cyclopamine)” value was 25 fold.
On to `C=C1[C@@H]2C[C@H]3[C@@H](CC=C4C[C@@H](O)CC[C@@]43C)[C@@H]2CC[C@]12OC[C@@H](N)[C@H]2C` [Compound 9], for which the “Stability towards acid (pH ~1, 24 h)” value in series [1] is listed as “remained unchanged; also recorded: stable”. The Cytotoxicity entry in the series on Shh-LIGHTII cells was “induced cytotoxicity”. Besides, the IC50 in series [2] (setting [5]) is more than 10 µM. Moreover, the “Activity in Gli1-dependent luciferase assay (in words)” value in series [2] was “no activity”.
The like results for `C=C1[C@@H]2C[C@H]3[C@@H](CC=C4C[C@@H](O)CC[C@@]43C)[C@@H]2CC[C@]12OC[C@@H](NCC)[C@H]2C` [Compound 8] were, in that order, “remained unchanged; also recorded: stable”, “induced cytotoxicity”, more than 10 µM and “no activity”.
